The results in this text go back to patent US7256257B2, “Pentapeptide compounds and uses related thereto” (priority 2001, dated 2007).

pIC50: −log10 of the molar value. Where a SMILES comes first, the peptide text is derived from it. [ ]: non-standard residue; d: D form. The star is where a group is joined. Dolaproine = CO[C@@H]([C@@H]1CCCN1)[C@@H](C)C(=O)O; Dil = CC[C@H](C)[C@H](NC)[C@@H](CC(=O)O)OC; NMe2Val = CC(C)[C@@H](C(=O)*)N(C)C; dPhe(ol) = N[C@@H](CO)Cc1ccccc1; Phe(ol) = N[C@H](CO)Cc1ccccc1

Data set [1] concerns 3396 human breast carcinoma cells. As to the kind of experiment: In vitro cytotoxicity, XTT, 3396 cells. It counts as cell-based. As to conditions: 3396 breast, exposed 1 hr, washed, XTT 96 hr later. As for the experimental part: (§1) In vitro cytotoxicity experiments were performed to compare the activities of auristatin E (29a) and drugs of this invention. 3396 and Karpas cells were exposed to the drug for 1 and 2 hr respectively. The cells were washed, and cytotoxicity was determined 96 hr later using XTT to measure mitochondrial integrity.

The subject of data set [2] is L2987 human lung adenocarcinoma cells. As to the kind of experiment: In vitro cytotoxicity, 3H-thymidine incorporation, L2987 cells. It counts as cell-based. As to conditions: for pIC50: L2987 lung, exposed 1-2 hours, 3H-thymidine incorporation 72 hours later. As for the experimental part:
(§2) To obtain the results shown in Table 4, the cells were exposed to drugs for 1-2 hours, and the cytotoxic effects were determined 72 hours later by the incorporation of ^3H-thymidine into DNA. Antigen expression was determined by flow cytometry and is expressed in terms of mean fluorescence intensity (MFI).
(§3) The cytotoxic effects of the mAb-S-36 conjugates on L2987 human lung adenocarcinoma cells (strongly BR96 antigen positive, weakly S2C6 antigen positive) and on Kato III human gastric carcinoma cells, (strongly BR96 antigen positive, S2C6 antigen negative) are shown in FIGS. 18A, 18B and 18C. These figures show the in vitro cytotoxicity of drugs and mAb-drug conjugates on (FIG. 18A) and (FIG. 18B) L2987 human lung adenoma cells, and (FIG. 18A) and (FIG. 18C) Kato III human gastric carcinoma cells. L2987 cells are positive for the antigens recognized by BR96 (LeY) and S2C6 (CD40), but express the LeY antigen at higher levels. Kato III cells are positive for the LeY antigen and negative for CD40. Cells were exposed to the conjugates for 2 hours, washed, and the cytotoxic effects were determined 3 days later using a thymidine incorporation assay.
(§4) These figures show the cytotoxic effects of auristatin E and auristatin E-containing conjugates on L2987 human lung adenocarcinoma cells (FIG. 19A); and various hematologic cell lines treated with AC10-S-40a (FIG. 19B). In all assays, cells were exposed to the drugs for 2 hours, washed, and the cytotoxic activities were measured 72 hours later using ^3H-thymidine incorporation.

In data set [3] the test system is Kato III human gastric carcinoma cells. Briefly: In vitro cytotoxicity, 3H-thymidine incorporation, Kato III cells. It counts as cell-based. The following applies: exposed 1-2 hours, 3H-thymidine incorporation 72 hours later. As to the method: as §2, §3
Another data set deals with SKBR3 (breast). Briefly: In vitro cytotoxicity, 3H-thymidine incorporation, SKBR3 cells. It counts as cell-based. As to conditions: 3H-thymidine incorporation 72 hours later. As to the method:
as §2

Another data set deals with AU565 (breast). Briefly: In vitro cytotoxicity, 3H-thymidine incorporation, AU565 cells. It counts as cell-based. The following applies: exposed 1-2 hours, 3H-thymidine incorporation 72 hours later. As for the experimental part:
as §2

The test system of data set [4] is Daudi Burkitt's lymphoma cells. As to the kind of experiment: In vitro cytotoxicity, 3H-thymidine incorporation, Daudi cells. It counts as cell-based. As to conditions: for pIC50: Daudi Burkitt's lymphoma, exposed 1-2 hours, 3H-thymidine incorporation 72 hours later. As to the method:
as §2, §4

In another data set the test system is L428 Hodgkin's lymphoma. As to the kind of experiment: In vitro cytotoxicity, 3H-thymidine incorporation, L428 cells. It counts as cell-based. The following applies: 3H-thymidine incorporation 72 hours later. As to the method:
as §2, §4

In another data set the test system is L540 Hodgkin's lymphoma. As to the kind of experiment: In vitro cytotoxicity, 3H-thymidine incorporation, L540 cells. It counts as cell-based. As to conditions: 3H-thymidine incorporation 72 hours later. As to the method: as §2, §4
For the next data set, the system named is IM-9 (Multiple myeloma). Briefly: In vitro cytotoxicity, 3H-thymidine incorporation, IM-9 cells. It counts as cell-based. The following applies: exposed 1-2 hours, 3H-thymidine incorporation 72 hours later. As for the experimental part: as §2, §4
The subject of data set [5] is Karpas anaplastic large cell lymphoma. Briefly: In vitro cytotoxicity, 3H-thymidine incorporation, Karpas cells. As to conditions: Karpas ALCL; exposed 1-2 hours, 3H-thymidine incorporation 72 hours later. It counts as cell-based. As for the experimental part: as §2, §4
The subject of another data set is Karpas 299 (ALCL). As to the kind of experiment: In vitro cytotoxicity, XTT, Karpas 299 cells. The following applies: exposed 2 hr, washed, XTT 96 hr later. It counts as cell-based. As for the experimental part: as §1
The nature of another data set: Stability in human serum. It counts as in vitro ADME. The following applies: 120 hours incubation at 37 C.
For data set [6], the system named is purified esterases from human livers. Briefly: Exposure to purified liver esterases (human). It counts as in vitro ADME. The following applies: prolonged exposure.
Data set [7] deals with purified esterases from rhesus monkey livers. As to the kind of experiment: Exposure to purified liver esterases (rhesus monkey). It counts as in vitro ADME. The following applies: prolonged exposure.
Data set [8] relates to purified esterases from guinea pig livers. As to the kind of experiment: Exposure to purified liver esterases (guinea pig). It counts as in vitro ADME. As to conditions: prolonged exposure.
In data set [9] the test system is purified esterases from rabbit livers. As to the kind of experiment: Exposure to purified liver esterases (rabbit). It counts as in vitro ADME. The following applies: prolonged exposure.
Setting [10] is: Homo sapiens, Breast carcinoma cell.

Turning to `CC[C@H](C)[C@@H]([C@@H](CC(=O)N1CCC[C@H]1[C@H](OC)[C@@H](C)C(=O)N[C@@H](COC(=O)c1ccc(C(C)=O)cc1)Cc1ccccc1)OC)N(C)C(=O)[C@@H](NC(=O)[C@H](C(C)C)N(C)C)C(C)C` [Compound 49], the pIC50 in [1] (setting [10]) was 7.47.

`CO[C@H]([C@@H](C)C(=O)N[C@H](C)[C@@H](OC(=O)CC(C)=O)c1ccccc1)[C@@H]1CCCN1C(=O)C[C@@H](OC)[C@H](C)N(C)C(=O)[C@@H](NC(=O)[C@H](C(C)C)N(C)C)C(C)C` [Compound 52, Acetoacetic Ester of Auristatin E] had a pIC50 in data set [1] (setting [10]) of 7.70.

In data set [1] (setting [10]), `CC[C@H](C)[C@@H]([C@@H](CC(=O)N1CCC[C@H]1[C@H](OC)[C@@H](C)C(=O)N[C@H](CO)Cc1ccccc1)OC)N(C)C(=O)[C@@H](NC(=O)[C@H](C(C)C)N(C)C)C(C)C` [Compound 32] (NMe2Val-V[Dil][Dolaproine][Phe(ol)]) had a pIC50 of 8.35.

Consider `CC[C@H](C)[C@@H]([C@@H](CC(=O)N1CCC[C@H]1[C@H](OC)[C@@H](C)C(=O)N[C@@H](C)[C@H](OC(=O)c1ccc(C(C)=O)cc1)c1ccccc1)OC)N(C)C(=O)[C@@H](NC(=O)[C@H](C(C)C)N(C)C)C(C)C` [Compound 39a, 4-acetyl-benzoic Ester of Auristatin E], for which the “cytotoxicity relative to auristatin E (29a)” value in [2] (L2981 cells (so in the source)) is recorded as “as cytotoxic as auristatin E (29a)”. For the same compound, the pIC50 was 9.05 in [2]; 8.30 in data set [3]; 8.22 in the data set on SKBR3 (breast) (exposed 1-2 hours); 8.22 in the data set with AU565 (breast); 7.82 in data set [4]; 7.89 with L428 Hodgkin's lymphoma (exposed 1-2 hours). The pIC50 in the data set with L540 Hodgkin's lymphoma (exposed 1-2 hours) was 7.80; with IM-9 (Multiple myeloma), 7.30; in data set [5], 7.89; in data set [1] it was 7.80; with Karpas 299 (ALCL), 8.40. In data set [4] (Daudi Burkitt's lymphoma cells), the “times less cytotoxic than auristatin E (29a)” value is “approximately 17 times”. Besides, the “hydrolysis in human serum” value in the data set “Stability in human serum” is recorded as “no detectable hydrolysis”. The “conversion to auristatin E (29a) by liver esterases” value in data set [6], in data set [7], in data set [8] and in data set [9] was “failed to demonstrate any conversion” each time.

`CC[C@H](C)[C@@H]([C@@H](CC(=O)N1CCC[C@H]1[C@H](OC)[C@@H](C)C(=O)N[C@H](C)[C@@H](O)c1ccccc1)OC)N(C)C(=O)[C@@H](NC(=O)[C@H](C(C)C)N(C)C)C(C)C` [Compound 29a, N,N-dimethyl-L-valyl-N-[(1S,2R)-4-[(2S)-2-[(1R,2R)-3-[[(1R,2S)-2-hydroxy-1-methyl-2-phenylethyl]amino]-1-methoxy-2-methyl-3-oxopropyl]-1-pyrrolidinyl]-2-methoxy-1-[(1S)-1-methylpropyl]-4-oxobutyl]-N-methyl-L-valinamide, reference compound]: the pIC50 in data set [2] (Homo sapiens) is 9.00; in data set [3] (Homo sapiens), 9.15; in the data set on SKBR3 (breast) (Homo sapiens, SK-BR-3, exposed 1-2 hours), 8.82; in the data set with AU565 (breast) (Homo sapiens), 8.82; in [4] (Homo sapiens), 9.05; in the data set with L428 Hodgkin's lymphoma (Homo sapiens, L-428, exposed 1-2 hours) it was 8.82. The pIC50 was 8.82 with L540 Hodgkin's lymphoma (Homo sapiens, L-540, exposed 1-2 hours); 8.46 in the data set with IM-9 (Multiple myeloma) (Homo sapiens); 8.92 in data set [5]; 8.22 in [1] (setting [10]); 8.92 in the data set on Karpas 299 (ALCL) (Homo sapiens).

`CC[C@H](C)[C@@H]([C@@H](CC(=O)N1CCC[C@H]1[C@H](OC)[C@@H](C)C(=O)N[C@H](COc1ccc(C(C)=O)cc1)Cc1ccccc1)OC)N(C)C(=O)[C@@H](NC(=O)[C@H](C(C)C)N(C)C)C(C)C` [Compound 58]: in data set [1] (setting [10]), the pIC50 is 8.60.

With `CC[C@H](C)[C@@H]([C@@H](CC(=O)N1CCC[C@H]1[C@H](OC)[C@@H](C)C(=O)N[C@H](COC(=O)c1ccc(C(C)=O)cc1)Cc1ccccc1)OC)N(C)C(=O)[C@@H](NC(=O)[C@H](C(C)C)N(C)C)C(C)C` [Compound 47], the results for the negative-log IC50 (pIC50) (in data set [1] (setting [10]); with Karpas 299 (ALCL) (Homo sapiens)) were 9.46 and 10.12, respectively.

In turn, `CC[C@H](C)[C@@H]([C@@H](CC(=O)N1CCC[C@H]1[C@H](OC)[C@@H](C)C(=O)N[C@@H](CO)Cc1ccccc1)OC)N(C)C(=O)[C@@H](NC(=O)[C@H](C(C)C)N(C)C)C(C)C` [Compound 33] (NMe2Val-V[Dil][Dolaproine][dPhe(ol)]) had a pIC50 in data set [1] (setting [10]) of 7.15.

As for `CC[C@H](C)[C@@H]([C@@H](CC(=O)N1CCC[C@H]1[C@H](OC)[C@@H](C)C(=O)N[C@H](C)[C@@H](OC(=O)CCCCC(=O)c1ccccc1)c1ccccc1)OC)N(C)C(=O)[C@@H](NC(=O)[C@H](C(C)C)N(C)C)C(C)C` [Compound 50, 5-benzoylvaleric Ester of Auristatin E], in data set [1] (setting [10]), the pIC50 was 8.52.
